We go through 17 compounds from patent US9580390B2, “Indazole compounds as kinase inhibitors and method of treating cancer with same” (University Health Network, priority 2011, dated 2017).

In test [1] the test system is Breast cancer cells. The test is described as follows: Cancer cell line growth inhibition (SRB assay). In kind it is cell-based. As to conditions: Homo sapiens; MDA-MB-468; read-out: Cancer Cell Line GI50 Range MDA-MB-468. (In SRB staining, fixed cells bind dye roughly in proportion to their protein.)
In test [2] the target is T1, human TTK (Homo sapiens, UniProt P33981).
T1 construct: amino terminal GST fusion of full length human TTK; purchased Invitrogen
T1 sequence (P33981 1-857): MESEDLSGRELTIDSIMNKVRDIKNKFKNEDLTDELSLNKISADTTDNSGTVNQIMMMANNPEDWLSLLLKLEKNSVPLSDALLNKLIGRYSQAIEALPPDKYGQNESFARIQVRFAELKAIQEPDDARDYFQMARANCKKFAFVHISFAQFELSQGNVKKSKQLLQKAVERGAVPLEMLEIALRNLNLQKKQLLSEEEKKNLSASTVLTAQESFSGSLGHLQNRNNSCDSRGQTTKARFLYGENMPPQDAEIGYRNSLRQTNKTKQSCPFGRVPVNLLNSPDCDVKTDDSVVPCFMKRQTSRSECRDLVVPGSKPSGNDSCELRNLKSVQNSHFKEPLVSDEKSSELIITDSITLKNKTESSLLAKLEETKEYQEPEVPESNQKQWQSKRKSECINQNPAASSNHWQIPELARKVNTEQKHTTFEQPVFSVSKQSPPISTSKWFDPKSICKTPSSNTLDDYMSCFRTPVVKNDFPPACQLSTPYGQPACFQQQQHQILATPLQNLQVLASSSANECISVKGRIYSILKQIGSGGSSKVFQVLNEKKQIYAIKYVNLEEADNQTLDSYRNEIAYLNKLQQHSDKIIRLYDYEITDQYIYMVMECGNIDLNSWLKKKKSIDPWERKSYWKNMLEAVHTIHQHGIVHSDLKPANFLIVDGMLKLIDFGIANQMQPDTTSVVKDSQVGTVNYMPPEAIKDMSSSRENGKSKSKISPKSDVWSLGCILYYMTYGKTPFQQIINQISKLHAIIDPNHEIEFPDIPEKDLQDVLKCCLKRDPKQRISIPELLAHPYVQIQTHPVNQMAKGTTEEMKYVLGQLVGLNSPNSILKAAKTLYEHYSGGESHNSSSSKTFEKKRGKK
Nature of the test: TTK inhibition assay (indirect ELISA). The test is classed as biochemical. As to conditions: read-out: TTK IC50 Range. (In general: ELISA stands for enzyme-linked immunosorbent assay.)

In test [3] the test system is ovarian cancer cells (PA-1). Nature of the test: Cancer cell line growth inhibition (SRB assay). As to conditions: read-out: Cancer Cell Line GI50 Range PA-1. In kind it is cell-based.
Test [4] deals with colon cancer cells (HCT116). Nature of the test: Cancer cell line growth inhibition (SRB assay). The test is classed as cell-based. As to conditions: Homo sapiens, HCT-116, read-out: Cancer Cell Line GI50 Range HCT116.

Like-named read-outs stand apart in the source and are kept apart here.

By GI50 is commonly meant the concentration giving 50% growth inhibition. As a reminder, the IC50 is the midpoint of a concentration-inhibition curve. Turning to `CN1C2CCC1CC(Oc1ccc(-c3n[nH]c4ccc(C(=O)N[C@@H](c5ccccn5)C5CC5)cc34)cc1)C2` (stereo partly drawn) [Example A380, N-((R)-cyclopropyl(pyridin-2-yl)methyl)-3-(4-(((1R,3R,5S)-8-methyl-8-azabicyclo[3.2.1]octan-3-yl)oxy)phenyl)-1H-indazole-5-carboxamide], the concentration for 50% growth inhibition (GI50) is 100 to 500 nM in test [1]; less than 100 nM in test [3] (Homo sapiens, PA-1); less than 100 nM in test [4]. For the same compound, in test [2], the concentration for half-maximal inhibition (IC50) was less than 100 nM.

For the compound `CC(C)C[C@H](NC(=O)c1ccc2[nH]nc(-c3ccc(OC4CCN(C5COC5)CC4)cc3)c2c1)c1ccccc1Cl` [Example A511, (S)-N-(1-(2-chlorophenyl)-3-methylbutyl)-3-(4-((1-(oxetan-3-yl)piperidin-4-yl)oxy)phenyl)-1H-indazole-5-carboxamide], the concentration for 50% growth inhibition (GI50) was 100 to 500 nM in test [1]; less than 100 nM in test [3] (Homo sapiens, PA-1); 100 to 500 nM in test [4]. The 50% inhibitory concentration (IC50) in test [2] is less than 100 nM.

Consider `CN1[C@@H]2CC[C@H]1C[C@H](Oc1ccc(-c3n[nH]c4ccc(C(=O)NC(c5ccccc5)C5CC5)cc34)cc1)C2` (stereo partly drawn) [Example A286, N-(cyclopropyl(phenyl)methyl)-3-(4-(((1R,3S,5S)-8-methyl-8-azabicyclo[3.2.1]octan-3-yl)oxy)phenyl)-1H-indazole-5-carboxamide], for which the GI50 is less than 100 nM in test [1]; less than 100 nM in test [3] (Homo sapiens, PA-1); less than 100 nM in test [4]. In addition, the IC50 in test [2] is less than 100 nM.

For the compound `O=C(NCC1(c2ccccc2)CCOCC1)c1ccc2[nH]nc(-c3ccc(N4CC(N5CCOCC5)C4)cc3)c2c1` [Example A499, 3-(4-(3-morpholinoazetidin-1-yl)phenyl)-N-((4-phenyltetrahydro-2H-pyran-4-yl)methyl)-1H-indazole-5-carboxamide], the GI50 fell in the range of 100 to 500 nM in test [1]; 100 to 500 nM in test [3] (Homo sapiens, PA-1); 100 to 500 nM in test [4]. Further, the half-inhibitory concentration (IC50) in test [2] is less than 100 nM.

Consider `O=C(N[C@H](c1ccccn1)C1CC1)c1ccc2[nH]nc(-c3ccc4c(c3)C(=O)CC3(CCOCC3)O4)c2c1` [Example A262, (S)-N-(cyclopropyl(pyridin-2-yl)methyl)-3-(4-oxo-2′,3′,5′,6′-tetrahydrospiro[chroman-2,4′-pyran]-6-yl)-1H-indazole-5-carboxamide], for which the concentration for 50% growth inhibition (GI50) in test [1] was in the range of 100 to 500 nM; in test [3] (Homo sapiens, PA-1), 100 to 500 nM; in test [4] it was 100 to 500 nM. In test [2], the IC50 was less than 100 nM.

With `CC1(C)CC(=O)c2cc(-c3n[nH]c4ccc(C(=O)N[C@H](c5ccccn5)C5CC5)cc34)ccc2O1` [Example A236, (S)-N-(cyclopropyl(pyridin-2-yl)methyl)-3-(2,2-dimethyl-4-oxochroman-6-yl)-1H-indazole-5-carboxamide], the GI50 in test [1] was more than 500 nM; in test [3] (Homo sapiens, PA-1) it was more than 500 nM; in test [4], more than 500 nM. Further, the half-maximal inhibitory concentration (IC50) in test [2] was less than 100 nM.

For `CN1CC2(CC(=O)c3cc(-c4n[nH]c5ccc(C(=O)N[C@H](c6ccccc6)C6CC6)cc45)ccc3O2)C1` [Example A254, (S)-N-(cyclopropyl(phenyl)methyl)-3-(1-methyl-4′-oxospiro[azetidine-3,2′-chroman]-6′-yl)-1H-indazole-5-carboxamide], the concentration for 50% growth inhibition (GI50) in test [1] was more than 500 nM; in test [3] (Homo sapiens, PA-1), 100 to 500 nM; in test [4] it was 100 to 500 nM. The half-inhibitory concentration (IC50) in test [2] was less than 100 nM.

In the case of `CC(C)[C@H](NC(=O)c1ccc2[nH]nc(-c3ccc(OC4CC5CCC(C4)N5C=O)nc3)c2c1)c1ccccc1Cl` (stereo partly drawn) [Example A354, N-((S)-1-(2-chlorophenyl)-2-methylpropyl)-3-(6-(((1R,3R,5S)-8-formyl-8-azabicyclo[3.2.1]octan-3-yl)oxy)pyridin-3-yl)-1H-indazole-5-carboxamide], the 50% growth inhibitory concentration (GI50) in test [1] is 100 to 500 nM; in test [3] (Homo sapiens, PA-1), 100 to 500 nM; in test [4] it was 100 to 500 nM. Further, in test [2], the half-maximal inhibitory concentration (IC50) was less than 100 nM.

Turning to `O=CN1[C@@H]2CC[C@H]1C[C@@H](Oc1ccc(-c3n[nH]c4ccc(C(=O)NC(c5ccccc5)C5CCC5)cc34)cc1)C2` (stereo partly drawn) [Example A346, N-(cyclobutyl(phenyl)methyl)-3-(4-(((1R,3R,5S)-8-formyl-8-azabicyclo[3.2.1]octan-3-yl)oxy)phenyl)-1H-indazole-5-carboxamide], the 50% growth inhibitory concentration (GI50) in test [1] was 100 to 500 nM; in test [3] (Homo sapiens, PA-1), 100 to 500 nM; in test [4] it was 100 to 500 nM. Further, the half-maximal inhibitory concentration (IC50) in test [2] is less than 100 nM.

Take `O=C(N[C@H](c1ccccn1)C1CC1)c1cc2c(-c3ccc(N4[C@@H]5CC[C@H]4COC5)cc3)n[nH]c2cc1F` [Example A272, 3-(4-((1R,5S)-3-oxa-8-azabicyclo[3.2.1]octan-8-yl)phenyl)-N-((S)-cyclopropyl(pyridin-2-yl)methyl)-6-fluoro-1H-indazole-5-carboxamide]: the GI50 is more than 500 nM in test [1]; 100 to 500 nM in test [3] (Homo sapiens, PA-1); 100 to 500 nM in test [4]. Besides, in test [2], the concentration for half-maximal inhibition (IC50) is less than 100 nM.

As to `CN1C2CCC1CC(Oc1ccc(-c3n[nH]c4ccc(C(=O)NC(c5ccccc5)C(F)(F)F)cc34)cc1)C2` (centres unmarked) [Example A400], the GI50 is more than 500 nM in test [1]; 100 to 500 nM in test [3] (Homo sapiens, PA-1); 100 to 500 nM in test [4]. Also, in test [2], the IC50 is less than 100 nM.

`O=C(NCC1(CN2CCOCC2)CCCCC1)c1ccc2[nH]nc(-c3ccc(N4[C@@H]5CC[C@H]4COC5)cc3)c2c1` [Example A510, 3-(4-((1R,5S)-3-oxa-8-azabicyclo[3.2.1]octan-8-yl)phenyl)-N-((1-(morpholinomethyl)cyclohexyl)methyl)-1H-indazole-5-carboxamide]: the GI50 in test [1] fell in the range of 100 to 500 nM; in test [3] (Homo sapiens, PA-1), 100 to 500 nM; in test [4], 100 to 500 nM. In addition, the IC50 in test [2] is less than 100 nM.

For `CC(C)C[C@H](NC(=O)c1ccc2[nH]nc(-c3ccc(N4CCN(C5COC5)CC4)cc3)c2c1)c1ccccc1` [Example A371, (S)-N-(3-methyl-1-phenylbutyl)-3-(4-(4-(oxetan-3-yl)piperazin-1-yl)phenyl)-1H-indazole-5-carboxamide], the GI50 in test [1] was 100 to 500 nM; in test [3] (Homo sapiens, PA-1), less than 100 nM; in test [4] it was less than 100 nM. In addition, the concentration for half-maximal inhibition (IC50) in test [2] is less than 100 nM.

On to `O=C(N[C@H](c1ccccn1)C1CCCC1)c1ccc2[nH]nc(-c3ccc(N4C5CCC4CC(O)C5)cc3)c2c1` (some centres unmarked) [Example A513], for which the GI50 in test [1] was less than 100 nM. Also, the half-maximal inhibitory concentration (IC50) in test [2] is less than 100 nM.

For the compound `CC(C)[C@H](NC(=O)c1ccc2[nH]nc(-c3ccc(N4C5CCC4CC(O)C5)cc3)c2c1)c1ccccc1Cl` (stereo partly drawn) [Example A514, N-((S)-1-(2-chlorophenyl)-2-methylpropyl)-3-(4-((1R,3R,5S)-3-hydroxy-8-azabicyclo[3.2.1]octan-8-yl)phenyl)-1H-indazole-5-carboxamide], in test [1], the GI50 was less than 100 nM. Moreover, the concentration for half-maximal inhibition (IC50) in test [2] was less than 100 nM.

Turning to `CN1CCC(Oc2ccc(-c3n[nH]c4ccc(C(=O)NCC5(N6CCOCC6)CCCCCC5)cc34)cc2)CC1` [Example A429, 3-(4-((1-methylpiperidin-4-yl)oxy)phenyl)-N-((1-morpholinocycloheptyl)methyl)-1H-indazole-5-carboxamide], in test [2], the IC50 is less than 100 nM. The 50% growth inhibitory concentration (GI50) in test [3] (PA-1 ovarian cancer cells, SRB assay) is 100 to 500 nM; in test [4] (HCT116 colon cancer cells, SRB assay), less than 100 nM.

On to `O=C(NCC1(c2cccs2)CCOCC1)c1ccc2[nH]nc(-c3ccc(OC4CCN(C5COC5)CC4)cc3)c2c1` [Example A433, 3-(4-((1-(oxetan-3-yl)piperidin-4-yl)oxy)phenyl)-N-((4-(thiophen-2-yl)tetrahydro-2H-pyran-4-yl)methyl)-1H-indazole-5-carboxamide], for which the half-maximal inhibitory concentration (IC50) in test [2] was less than 100 nM. The GI50 in test [3] (Homo sapiens, PA-1) was in the range of 100 to 500 nM; in test [4], 100 to 500 nM.
